Source: patent publication US20250188069A1, “COMPOUNDS AND METHODS FOR DEGRADING CASEIN KINASE 1 ALPHA” (PIN THERAPEUTICS, INC., priority 2022, published 2025)
Where a name gives a salt, the structure may show the parent alone. Read-outs that look alike come from different tables or passages of the source.

How the values were obtained:
MV-4-11 cells = assay: AML cell viability assay (RealTime-Glo); type: cell-based; settings: Homo sapiens, read-out: Cell viability classification
CK1α = CK1α (Homo sapiens, UniProt P48729+Q96SW2); assay: CK1α degradation, flow cytometry in MV4-11 cells; type: cell-based; design: CK1α levels were determined in MV-4-11 cells using Jess (Protein Simple); host or cells: MV-4-11; settings: % reduction of CK1α compared to DMSO, MV4-11 cells at 316 nM for 16 hours, read-out: CK1α degradation classification
Experimental: MV-4-11 cells were obtained from ATCC and grown in IMDM supplemented with 10% FBS. The cells were maintained at 37° C. under 5% CO2.
Compounds of the present disclosure were added to cells (final DMSO concentration of 0.5%) and incubated for 16 hours. CK1α level was determined in MV4-11 cells using flow cytometry (Luminex, Guava EasyCyte Plus). Briefly, cells were prepared with sequential 10% formalin and 70% methanol fixation. […] GuavaSoft Incyte software was used to analyse the flow cytometry data. Protein levels relative to DMSO are calculated for CK1α.
The efficacy of CK1α degradation of other part of compounds of the present disclosure was determined by treating MV4-11 cells at […] (Final DMSO concentration of 0.5%) for 16 hours. Protein levels relative to DMSO are calculated for CK1α.
Protein levels relative to DMSO are calculated for CK1α.

[1] = MV4-11, IC50 class, MV-4-11 cells, RealTime-Glo after 44 hrs of treatment (TABLE 3)

Sequence of CK1α (P48729 whole entry): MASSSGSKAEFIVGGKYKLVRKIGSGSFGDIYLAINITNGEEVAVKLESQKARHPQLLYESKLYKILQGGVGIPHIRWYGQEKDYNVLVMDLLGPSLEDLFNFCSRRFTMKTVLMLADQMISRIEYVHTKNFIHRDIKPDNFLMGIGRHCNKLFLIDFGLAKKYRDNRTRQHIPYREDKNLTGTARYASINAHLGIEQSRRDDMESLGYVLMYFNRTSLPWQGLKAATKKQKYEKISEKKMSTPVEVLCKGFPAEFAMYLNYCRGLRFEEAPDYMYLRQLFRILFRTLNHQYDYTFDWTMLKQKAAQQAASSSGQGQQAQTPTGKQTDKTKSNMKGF
Sequence of CK1α (Q96SW2 whole entry): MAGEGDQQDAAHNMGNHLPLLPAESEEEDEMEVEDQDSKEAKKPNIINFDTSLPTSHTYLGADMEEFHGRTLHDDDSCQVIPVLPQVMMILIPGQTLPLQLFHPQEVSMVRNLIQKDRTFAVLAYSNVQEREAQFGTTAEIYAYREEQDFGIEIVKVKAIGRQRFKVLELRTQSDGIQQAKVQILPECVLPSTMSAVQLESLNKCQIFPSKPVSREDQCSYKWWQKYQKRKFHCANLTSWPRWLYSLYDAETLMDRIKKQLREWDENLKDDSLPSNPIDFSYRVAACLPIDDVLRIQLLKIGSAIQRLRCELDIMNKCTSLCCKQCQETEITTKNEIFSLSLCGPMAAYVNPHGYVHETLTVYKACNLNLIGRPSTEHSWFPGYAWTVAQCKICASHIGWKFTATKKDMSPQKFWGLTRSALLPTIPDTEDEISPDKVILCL
Sequence of CK1α (Q16531 whole entry partner): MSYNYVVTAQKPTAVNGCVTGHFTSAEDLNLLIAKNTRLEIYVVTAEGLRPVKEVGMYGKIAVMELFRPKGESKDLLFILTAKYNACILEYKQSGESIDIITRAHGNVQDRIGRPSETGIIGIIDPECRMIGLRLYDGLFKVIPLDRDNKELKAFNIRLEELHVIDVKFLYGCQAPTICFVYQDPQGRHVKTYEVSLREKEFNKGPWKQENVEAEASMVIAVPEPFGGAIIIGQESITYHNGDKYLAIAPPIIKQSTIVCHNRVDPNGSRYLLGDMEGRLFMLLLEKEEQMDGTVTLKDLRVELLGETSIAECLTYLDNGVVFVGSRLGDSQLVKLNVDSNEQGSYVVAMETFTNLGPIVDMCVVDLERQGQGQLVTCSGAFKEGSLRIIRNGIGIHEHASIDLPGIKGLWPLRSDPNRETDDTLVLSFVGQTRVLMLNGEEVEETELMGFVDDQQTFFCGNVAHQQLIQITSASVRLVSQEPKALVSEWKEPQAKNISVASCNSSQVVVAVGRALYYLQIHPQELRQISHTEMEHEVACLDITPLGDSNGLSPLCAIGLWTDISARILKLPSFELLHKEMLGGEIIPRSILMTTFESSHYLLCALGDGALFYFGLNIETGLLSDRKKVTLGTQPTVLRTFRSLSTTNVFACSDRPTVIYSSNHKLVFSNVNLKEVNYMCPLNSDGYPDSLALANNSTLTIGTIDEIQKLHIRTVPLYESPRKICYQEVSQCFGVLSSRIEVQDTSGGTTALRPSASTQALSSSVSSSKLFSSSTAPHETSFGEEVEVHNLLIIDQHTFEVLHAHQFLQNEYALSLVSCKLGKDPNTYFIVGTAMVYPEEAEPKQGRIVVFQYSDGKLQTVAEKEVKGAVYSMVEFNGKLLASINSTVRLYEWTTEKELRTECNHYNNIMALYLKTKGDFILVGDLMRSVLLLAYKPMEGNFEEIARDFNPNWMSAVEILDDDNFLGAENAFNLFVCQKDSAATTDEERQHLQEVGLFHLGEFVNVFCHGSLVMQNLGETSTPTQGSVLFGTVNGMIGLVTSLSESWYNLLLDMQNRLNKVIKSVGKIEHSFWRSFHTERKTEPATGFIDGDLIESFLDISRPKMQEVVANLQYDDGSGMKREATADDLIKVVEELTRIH

Row | Compound | IC50 (MV-4-11 cells; [1]) [nM] | Dmax at 0.316 µM (CK1α) [%] | IC50 (MV-4-11 cells; MV4-11, 44 h) [nM]
1 | CC(C)(C)CCCN(c1cccc2c1CN(C1CCC(=O)NC1=O)C2=O)[C@H]1CC[C@H](N)CC1 (stereo partly shown) [Compound 268, 3-(4-(((1r,4r)-4-aminocyclohexyl)(4,4-dimethylpentyl)amino)-1-oxoisoindolin-2-yl)piperidine-2,6-dione, HCl] | < 100 | > 75 | 
2 | N[C@H]1CC[C@H](N(CCC2CCOCC2)c2cccc3c2CN(C2CCC(=O)NC2=O)C3=O)CC1 (stereo partly shown) [Compound 240, 3-(4-(((1r,4r)-4-aminocyclohexyl)(2-(tetrahydro-2H-pyran-4-yl)ethyl)amino)-1-oxoisoindolin-2-yl)piperidine-2,6-dione hydrochloride] | 100 to 1000 | < 50 | 
3 | O=C1CCC(N2Cc3c(cccc3N(CCC3CC3)[C@H]3CC[C@H](NCC(=O)N4CCC4)CC3)C2=O)C(=O)N1 (stereo partly shown) [Compound 546, 3-{4-[(2-cyclopropylethyl)[(1r,4r)-4-{[2-(azetidin-1-yl)-2-oxoethyl]amino}cyclohexyl]amino]-1-oxo-3H-isoindol-2-yl}piperidine-2,6 dione] | < 100 | > 75 | 
4 | N[C@H]1CC[C@H](N(CC2CC2)c2cccc3c2CN(C2CCC(=O)NC2=O)C3=O)CC1 (stereo partly shown) [Compound 235, 3-(4-(((1r,4r)-4-aminocyclohexyl)(cyclopropylmethyl)amino)-1-oxoisoindolin-2-yl)piperidine-2,6-dione hydrochloride] | < 100 | > 75 | 
5 | CC(=O)N[C@H]1CC[C@H](N(CCCCN)c2cccc3c2CN(C2CCC(=O)NC2=O)C3=O)CC1 (stereo partly shown) [Compound 273, N-((1r,4r)-4-((4-aminobutyl)(2-(2,6-dioxopiperidin-3-yl)-1-oxoisoindolin-4-yl)amino)cyclohexyl)acetamide, 2HCl] | > 1000 | 50 to 75 | 
6 | NCC(F)(F)CCN(CCC1CC1)c1cccc2c1CN(C1CCC(=O)NC1=O)C2=O (stereo not shown) [Compound 518, 3-(4-((4-amino-3,3-difluorobutyl)(2-cyclopropylethyl)amino)-1-oxoisoindolin-2-yl)piperidine-2,6-dione] | 100 to 1000 | > 75 | 
7 | O=C1CCC(N2Cc3c(cccc3N(CCC3CC3)[C@H]3CC[C@H](NCCC(F)(F)F)CC3)C2=O)C(=O)N1 (stereo partly shown) [Compound 516, 3-{4-[(2-cyclopropylethyl)[(1r,4r)-4-[(3,3,3-trifluoropropyl)amino]cyclohexyl]amino]-1-oxo-3H-isoindol-2-yl}piperidine-2,6-dione] | < 100 | > 75 | 
8 | CCCCCN(c1cccc2c1CN(C1CCC(=O)NC1=O)C2=O)[C@H]1CC[C@H](NC(C)=O)CC1 (stereo partly shown) [Compound 168, N-((1r,4r)-4-((2-(2,6-dioxopiperidin-3-yl)-1-oxoisoindolin-4-yl)(pentyl)amino)cyclohexyl)acetamide] | 100 to 1000 | > 75 | 
9 | O=C1CCC(N2Cc3c(cccc3N(CCC3CC3)[C@H]3CC[C@H](NC(CF)CF)CC3)C2=O)C(=O)N1 (stereo partly shown) [Compound 540, 3-{4-[(2-cyclopropylethyl)[(1r,4r)-4-[(1,3-difluoropropan-2-yl)amino]cyclohexyl]amino]-1-oxo-3H-isoindol-2-yl}piperidine-2,6-dione] |  | 50 to 75 | 100 to 1000
10 | C[C@@H](N[C@H]1CC[C@H](N(CCC2CC2)c2cccc3c2CN(C2CCC(=O)NC2=O)C3=O)CC1)C(F)(F)F (stereo partly drawn) [Compound 548, 3-(4-((2-cyclopropylethyl)((1r,4r)-4-(((R)-1,1,1-trifluoropropan-2-yl)amino)cyclohexyl)amino)-1-oxoisoindolin-2-yl)piperidine-2,6-dione] | 100 to 1000 | < 50 | 
11 | CCCCCN(c1cccc2c1CN(C1CCC(=O)NC1=O)C2=O)[C@H]1CCC[C@@H](CN)C1 (stereo partly drawn) [Compound 330, 3-(4-(((1S,3R)-3-(aminomethyl)cyclohexyl)(pentyl)amino)-1-oxoisoindolin-2-yl)piperidine-2,6-dione, HCl] | < 100 | > 75 | 
